Data: patent publication US20070213359A1 (ACADIA Pharmaceuticals Inc., priority 2005, published 2007)
Where two headings read alike, the source gives them in different places.

Target: Ghrelin receptor (Homo sapiens, UniProt Q92847)
Experiment: Receptor Selection and Amplification Technology (R-SAT) assay
Assay type: cell-based
Set-up: expressed in transfected cells; host or cells: NIH3T3
Settings: for IC50: negative logarithm of ligand concentration causing 50% inhibition of constitutive receptor response, transfected NIH3T3 cells, '—' not defined (nd used separately), read-out: RSAT pIC50 (converted); for Emax: read-out: RSAT Eff(%)
[1] = percent inhibition at saturating ligand, normalized to reference ligand Substance P analog = 100%

Chain of Ghrelin receptor (Q92847 whole entry): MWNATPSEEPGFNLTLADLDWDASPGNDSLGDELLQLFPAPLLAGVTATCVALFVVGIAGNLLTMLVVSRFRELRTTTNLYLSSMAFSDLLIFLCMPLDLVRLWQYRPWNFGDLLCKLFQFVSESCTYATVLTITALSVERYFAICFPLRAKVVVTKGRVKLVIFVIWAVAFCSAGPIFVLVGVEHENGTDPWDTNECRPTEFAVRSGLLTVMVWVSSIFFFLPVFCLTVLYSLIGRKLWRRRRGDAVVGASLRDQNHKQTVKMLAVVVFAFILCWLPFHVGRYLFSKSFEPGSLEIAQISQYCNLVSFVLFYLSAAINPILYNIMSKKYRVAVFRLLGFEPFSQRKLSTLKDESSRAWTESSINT

Row | IC50 [nM] | Emax [1] [%] | RSAT Eff(%) [1] [%] | Compound | Emax [%]
1 | 1.26 | 111 |  | CC(=O)c1cn(CCCN2CCCN(Cc3ccccc3Cl)CC2)c2c(C)cccc12 | 
2 | 63.1 |  | 84 | COc1cccc2c(C(=O)NCC(C)C)cn(CCCN3CCN(CCOc4ccc(Cl)cc4)CC3)c12 | 
3 | 63.1 | 91 |  | CC(=O)c1cn(CCCN2CCN(c3ncc(C(F)(F)F)cc3Cl)CC2)c2ncccc12 | 
4 | 79.4 |  | 147 | COc1cccc2c(C(=O)NCC(C)C)cn(CCCN3C4CCC3CC(Oc3ccc(F)cc3)C4)c12 (stereo not drawn) | 
5 | 100 | 84 |  | CC(=O)c1cn(CCCNCCOc2ccccc2)c2c(Cl)cccc12 | 
6 | 100 | 87 |  | CC(=O)c1cn(CCCN2C3CCC2CC(Oc2ccc(F)cc2)C3)c2c(Cl)cccc12 (stereo not drawn) | 
7 | 100 | 101 |  | CCc1cccc2c(C(C)=O)cn(CCCN3C4CCC3CC(Oc3ccccc3Cl)C4)c12 (stereo not drawn) | 
8 | 100 | 83 |  | O=C(c1cn(CCCN2CCCN(Cc3ccc(F)cc3)CC2)c2ncccc12)C(F)(F)F | 
9 | 126 | 81 |  | CCCOC1CCN(CCCn2cc(C(=O)CC(C)C)c3ccccc32)CC1 | 
10 | 126 | 110 |  | CCCCC(=O)c1cn(CCCN2C3CCC2CC(Oc2ccc(Cl)cc2)C3)c2ccc(OC)cc12 (stereo not drawn) | 
11 | 126 | 106 |  | COc1cccc2c(C(C)=O)cn(CCCN3CCC(O)(Cc4ccccc4)CC3)c12 | 
12 | 126 | 114 |  | CCCCC(=O)c1cn(CCCN2CCC(OCCC)CC2)c2ccc(OC)cc12 | 
13 | 126 | 78 |  | O=C(c1cn(CCCN2CCN(Cc3ccc(Cl)cc3Cl)CC2)c2ncccc12)C(F)(F)F | 
14 | 126 | 91 |  | CCCCC(=O)c1cn(CCCN2CCC3c4cc(OC)ccc4NC3C2)c2ccc(OC)cc12 (stereo not drawn) | 
15 | 158 |  | 93 | COc1cccc2c(C(=O)NCC(C)C)cn(CCCN3CCC(c4nc(-c5ccncc5)no4)CC3)c12 | 
16 | 158 | 90 |  | CCc1cccc2c(C(C)=O)cn(CCCN3CCN(c4ncc(C(F)(F)F)cc4Cl)CC3)c12 | 
17 | 158 | 70 |  | COc1ccc2c(C(C)=O)cn(CCCN3CCC(Oc4ccc(F)cc4)CC3)c2c1 | 
18 | 158 | 104 |  | CCCCC(=O)c1cn(CCCN2CCC(CCCC)CC2)c2ccc(OC)cc12 | 
19 | 158 | 104 |  | CCC(=O)c1cn(CCCN2CCC(c3nc4ccccc4s3)CC2)c2ccccc12 | 
20 | 158 | 95 |  | COc1cccc2c(C(C)=O)cn(CC(C)CN3CCN(c4ncc(C(F)(F)F)cc4Cl)CC3)c12 (stereo not drawn) | 
21 | 158 | 98 |  | CCc1cccc2c(C(C)=O)cn(CCCNC3Cc4ccccc4C3)c12 | 
22 | 158 | 120 |  | CC(=O)c1cn(CCCN2CCN(Cc3ccc(Cl)cc3Cl)CC2)c2c(C)cccc12 | 
23 | 158 | 75 |  | CC(=O)c1cn(CCCN2CCC(Oc3ccc(F)cc3)CC2)c2ccc(Br)cc12 | 

Row | IC50 [nM] | Emax [1] [%] | RSAT Eff(%) [1] [%] | Compound | Emax [%]
24 | 158 | 129 |  | CC(C)CC(=O)c1cn(CCCN2C3CCC2CC(OCC2CC2)C3)c2ccccc12 (stereo not drawn) | 
25 | 158 | 93 |  | COc1ccc2c(C(C)=O)cn(CCCN3C4CCC3CC(OCC3CC3)C4)c2c1 (stereo not drawn) | 
26 | 158 | 114 |  | COc1cccc2c(C(C)=O)cn(CCCN3CCN(C(C)c4ccccc4)CC3)c12 (stereo not drawn) | 
27 | 200 | 103 |  | CC(=O)c1cn(CCCN2CCC(c3nc(-c4cccnc4)no3)CC2)c2c(C)cccc12 | 
28 | 200 | 58 |  | CC(=O)c1cn(CC(O)CN2CCC(c3nc4ccccc4s3)CC2)c2ccccc12 (stereo not drawn) | 
29 | 200 | 91 |  | CC(=O)c1cn(CCCN2CCN(CCOc3ccccc3)CC2)c2c(Cl)cccc12 | 
30 | 200 | 98 |  | CCc1cccc2c(C(C)=O)cn(CCCN3C4CCC3CC(Oc3ccc(F)cc3)C4)c12 (stereo not drawn) | 
31 | 200 | 74 |  | CC(=O)c1cn(CC(O)CN2CCC(Oc3ccc(F)cc3)CC2)c2ccccc12 (stereo not drawn) | 
32 | 251 | 88 |  | COc1ccc2c(C(C)=O)cn(CCCN3CCC(Oc4ccccc4Cl)CC3)c2c1 | 
33 | 251 | 54 |  | CC(=O)c1cn(CCN2C3CCC2CC(OCC2CC2)C3)c2ccccc12 (stereo not drawn) | 
34 | 251 | 93 |  | CC(=O)c1cn(CCCN2CCN(C(C)c3ccccc3)CC2)c2cc(Br)ccc12 (stereo not drawn) | 
35 | 251 | 102 |  | CC(=O)c1cn(CCCN2C3CCC2CC(OCC2CC2)C3)c2ccc(Br)cc12 (stereo not drawn) | 
36 | 251 | 99 |  | CCCON1CCN(CCCn2cc(C(=O)C(F)(F)F)c3ccccc32)CC1 | 
37 | 251 | 106 |  | CCc1cccc2c(C(C)=O)cn(CCCN3CCN(Cc4ccc(Cl)cc4Cl)CC3)c12 | 
38 | 251 | 97 |  | CC(=O)c1cn(CCCN2CCC(Oc3ccccc3Cl)CC2)c2c(Cl)cccc12 | 
39 | 251 | 105 |  | CCCCC[C@H]1C[C@H]2CC[C@@H](C1)N2CCCn1cc(C(C)=O)c2cccc(C)c21 | 
40 | 251 | 92 |  | CC(c1ccccc1)N1CCN(CCCn2cc(C(=O)C(F)(F)F)c3ccccc32)CC1 (stereo not drawn) | 
41 | 251 | 97 |  | O=C(c1cn(CCCN2C3CCC2CC(Oc2ccc(Cl)cc2)C3)c2ccccc12)C(F)(F)F (stereo not drawn) | 
42 | 251 | 92 |  | CCCCC(=O)c1cn(CCCN2CCC(Oc3ccccc3Cl)CC2)c2ccc(OC)cc12 | 
43 | 251 | 107 |  | CCCOC1CCN(CCCn2cc(C(C)=O)c3ccc(Br)cc32)CC1 | 
44 | 251 | 108 |  | CC(=O)c1cn(CCCN2CCC(c3nc(-c4ccncc4)no3)CC2)c2c(Cl)cccc12 | 
45 | 251 | 84 |  | CC(=O)c1cn(CCCN2CCCN(CCc3ccccc3)CC2)c2ncccc12 | 
46 | 316 | 59 |  | CCC(=O)c1cn(CCCN2CCC(c3ccccc3OC)CC2)c2ccccc12 | 

Row | IC50 [nM] | Emax [1] [%] | RSAT Eff(%) [1] [%] | Compound | Emax [%]
47 | 316 | 71 |  | CC(=O)c1cn(CCCN2CCC3(CC2)CC(=O)c2ccccc2O3)c2c(C)cccc12 | 
48 | 316 | 112 |  | CC(C)CC(=O)c1cn(CCCN2CCC(Oc3ccc(Cl)cc3)CC2)c2ccccc12 | 
49 | 316 | 101 |  | CCCCC(=O)c1cn(CCCN2CCC(c3ccccc3OC)CC2)c2ccc(OC)cc12 | 
50 | 316 | 76 |  | CCC(=O)c1cn(CCCN2CCC(Oc3ccccc3Cl)CC2)c2ccccc12 | 
51 | 316 | 80 |  | CCCCC1CCN(CCCn2cc(C(C)=O)c3cccc(Cl)c32)CC1 | 
52 | 398 | 81 |  | CC(=O)c1cn(CCCCN2CCC(c3nc4ccccc4s3)CC2)c2ccccc12 | 
53 | 398 | 85 |  | CCCCC1CCN(CCCn2cc(C(=O)CC(C)C)c3ccccc32)CC1 | 
54 | 398 | 127 |  | CCOC(=O)C1CCN(CCCn2cc(C(C)=O)c3cccc(OC)c32)CC1 | 
55 | 398 | 88 |  | O=C(c1cn(CCCN2CCC(c3nc4ccccc4s3)CC2)c2ccccc12)C(F)(F)F | 
56 | 398 | 49 |  | CC(=O)c1c(C)n(CCCN2CCCN(Cc3ccc(F)cc3)CC2)c2c(Br)cccc12 | 
57 | 398 | 67 |  | COc1ccc2c(C(C)=O)cn(CCCN3CCC(Oc4ccc(Cl)cc4)CC3)c2c1 | 
58 | 398 | 118 |  | CCCCC1CCN(CCCn2cc(C(C)=O)c3cc(OC)ccc32)CC1 | 
59 | 398 | 97 |  | COc1cccc2c(C#N)cn(CCCN3CCN(c4ncc(C(F)(F)F)cc4Cl)CC3)c12 | 
60 | 398 | 65 |  | CC(=O)c1cn(CC(C)CN2C3CCC2CC(OCC2CC2)C3)c2ccccc12 (stereo not drawn) | 
61 | 398 | 77 |  | CC(=O)c1cn(CCN2CCC(Cc3ccccc3)CC2)c2ccccc12 | 
62 | 501 | 69 |  | CC(=O)c1cn(CCCN2CCC(c3nc(-c4ccccc4)no3)CC2)c2c(Br)cccc12 | 
63 | 501 | 91 |  | CC(=O)c1cn(CCCN2CCN(CCOc3ccccc3)CC2)c2c(Br)cccc12 | 
64 | 501 | 104 |  | COc1ccc2c(c1)c(C(C)=O)cn2CCCN1CCC(Oc2ccc(Cl)cc2)CC1 | 
65 | 501 | 108 |  | COc1ccc2c(C(C)=O)cn(CCCN3C4CCC3CC(OC3=CC=C(Cl)CC3)C4)c2c1 (stereo not drawn) | 
66 | 501 | 103 |  | O=C(c1cn(CCCN2C3CCC2CC(OCC2CC2)C3)c2ccccc12)C(F)(F)F (stereo not drawn) | 
67 | 501 | 98 |  | CC(=O)c1cn(CC(C)CN2CCC(Oc3ccc(F)cc3)CC2)c2ccccc12 (stereo not drawn) | 
68 | 501 | 74 |  | CCCCC1CCN(CCCn2cc(C(=O)C(F)(F)F)c3ccccc32)CC1 | 
69 | 501 | 77 |  | COc1ccc2c(c1)c(C(C)=O)cn2CCCN1CCN(C(C)c2ccccc2)CC1 (stereo not drawn) | 

Row | Compound | IC50 [nM] | Emax [1] [%] | RSAT Eff(%) [1] [%] | Emax [%]
70 | COc1cccc2c(C(C)=O)cn(CC(C)CN3C4CCC3CC(CCc3ccccc3)C4)c12 (stereo not drawn) | 50.1 |  |  | 120
71 | CC(=O)c1cn(CCCN2CCN(c3ncc(C(F)(F)F)cc3Cl)CC2)c2c(C#N)cccc12 | 79.4 | 106 |  | 
72 | CC(=O)c1cn(CCCN2C3CCC2CC(CCc2ccc(Cl)cc2)C3)c2c(C)cccc12 (stereo not drawn) | 100 |  |  | 50
73 | CCCCC(=O)c1cn(CCCN2CCC(Oc3ccc(F)cc3)CC2)c2ccc(OC)cc12 | 100 |  |  | 91
74 | CC(C)CC(=O)c1cn(CCCN2C3CCC2CC(OC2=CC=C(Cl)CC2)C3)c2ccccc12 (stereo not drawn) | 158 |  |  | 137
75 | COc1cccc2c(C(C)=O)cn(CC(C)CN3CCN(Cc4ccc(Cl)cc4Cl)CC3)c12 (stereo not drawn) | 200 | 78 |  | 
76 | CCCCC(=O)c1cn(CCCN2C3CCC2CC(OCC2CC2)C3)c2ccc(OC)cc12 (stereo not drawn) | 200 |  |  | 132
77 | COc1cccc2c(C(C)=O)cn(CCCN3CCC4(CC3)C(=O)NCN4c3ccccc3)c12 | 316 |  |  | 38
78 | CC(C)CNC(=O)c1cn(CCCN2CCC(Oc3ccc(F)cc3)CC2)c2ccccc12 | 501 |  |  | 94
